Test results as given in patent publication US20220023289A1, “Application Of Pyrroloquinoline Quinone In Preparation Of Medicament Used For Preventing And Treating Acute Altitude Sickness And Acute Altitude Hypoxia Injury” (priority 2018, published 2022).

Legend:
[1] = Body weight of mice before closed hypoxia tolerance test; conditions: 0.16 g/kg
[2] = test system: rats exposed to acute altitude hypoxia; experiment: Protein metabolism in rats exposed to acute altitude hypoxia; assay type: in vivo, Wistar rat; conditions: for albumin (second column): 0.11 g/kg
Description: (§1) Select healthy Wistar rats weight 160-200 g, half female and half male. After feeding for 3 days, these Wistar rats are randomly divided into ten groups according to their body weight, each group has 16±2 rats. The groups are divided as follows: five groups of the hypoxic exposure drug test group, respectively, are given 0.91 mg/kg, 1.83 mg/kg, 3.66 mg/kg, 7.31 mg/kg, and 14.63 mg/kg drugs. […] After continuous intragastric administration for 7 days, the animals in the hypoxic exposure group are simultaneously put into the decompression and hypoxia compound experimental chamber, the hatch is closed, and the pressure is reduced at a speed of 10 m/s. After being raised to an altitude of 6000 m and maintained for 8 hours, the speed in 10 m/s drops is reduced to normal altitude, open the hatch, and then take out the animal, collect blood samples (after standing for 1 hour, the supernatant is centrifuged and stored at −20° C.), and liver tissue samples. Detection indicator includes body weight, serum blood glucose, ATP, lactic acid, endothelin, nitric oxide, SOD, CO, MDA related to oxidative stress, and total protein, albumin, triglycerides, total cholesterol, high-density lipoprotein cholesterol, low-density lipoprotein cholesterol, glutamic pyruvic transaminase, total bilirubin, gluamic oxalacetic transaminase, serum urea nitrogen, creatinine, uric acid, lactate dehydrogenase, creatine kinase, α-hydroxybutyrate dehydrogenase; liver ATP, hepatic glycogen. Except that the formal oxygen control animal group is not put into the decompression and hypoxia compound experimental chamber, other experimental conditions and detection indicators are the same.
(§2) Measure blood glucose, total protein, albumin, triglycerides, total cholesterol, high-density lipoprotein cholesterol, low-density lipoprotein cholesterol, glutamic-pyruvic transaminase, total bilirubin, glutamic oxalacetic transaminase, serum urea nitrogen, creatinine, uric acid, lactate dehydrogenase, creatine kinase, α-hydroxybutyrate dehydrogenase, blood homocysteine by using an automatic blood biochemical analyzer.

[3] = test system: rats exposed to acute altitude hypoxia; experiment: Endothelial function (serum endothelin-1, nitric oxide) in rats exposed to acute altitude hypoxia; assay type: in vivo, Wistar rat; conditions: for Endothelin-1 / Nitric oxide: 0.11 g/kg
Description: This method uses nitrate reductase specificity reduce NO^3− to NO^2−, and then determine the level of its concentration by displaying shades of color. Operate according to the kit instructions, measure the absorbance of each tube at a wavelength of 550 nm, and then calculate the content of nitric oxide of the sample to be tested according to the formula. To the coated microwells pre-coated with rat endothelin (endothelin-1) capture antibody, add in sequence specimens, standards, and HRP-labeled detection antibody, and then incubate and wash thoroughly. Use a substrate TMB for color development. TMB is converted into blue under the catalysis of peroxidase and converted into the final yellow color under the action of acid. The color intensity is positively correlated with the rat endothelin (endothelin-1) in the sample.

[4] = test system: rats exposed to acute altitude hypoxia; experiment: Serum homocysteine in rats exposed to acute altitude hypoxia; assay type: in vivo, Wistar rat; conditions: for Serum homocysteine: 0.11 g/kg
Description: as §1, §2

[5] = test system: mice exposed to high altitude hypoxia; experiment: Exhaustive swimming experiment in mice exposed to high altitude hypoxia (6000 m); assay type: in vivo, Kunming mice
Description: Select healthy male Kunming mice weight 18-22 g.

[6] = test system: rats exposed to acute altitude hypoxia; experiment: Myocardial enzyme activity in rats exposed to acute altitude hypoxia; assay type: in vivo, Wistar rat; conditions: for Creatine Kinase / Lactate dehydrogenase / α-hydroxybutyrate dehydrogenase: 0.11 g/kg
Description: as §1, §2

[7] = test system: rats exposed to acute altitude hypoxia; experiment: Liver function of rats exposed to acute altitude hypoxia; assay type: in vivo, Wistar rat
Description: as §1, §2

[8] = test system: rats with acute altitude hypoxia injury; experiment: Serum energy metabolism indexes (ATP, lactic acid) in rats with acute altitude hypoxia injury; assay type: in vivo, Wistar rat; conditions: for serum Lactic acid: 0.11 g/kg
Description: Determination of adenosine triphosphate (ATP): Perform enzyme-linked immunosorbent assay by double-antibody one-step sandwich method. To the coated microwells pre-coated with rat adenosine triphosphate (ATP) capture antibody, add in sequence the specimens, standard, and HRP-labeled detection antibody, and then incubate and wash thoroughly. Use a substrate TMB for color development, TMB is converted into blue under the catalysis of peroxidase and converted into the final yellow color under the action of acid. The color intensity is positively correlated with the rat adenosine triphosphate (ATP) in the sample. […] Determination of lactic acid (LC): Perform enzyme-linked immunosorbent assay by double-antibody one-step sandwich method. To the coated microwells pre-coated with rat lactic acid (LC) capture antibody, add in sequence the specimens, standard, and HRP-labeled detection antibody, and then incubate and wash thoroughly. Use a substrate TMB for color development. TMB is converted into blue under the catalysis of peroxidase and converted into the final yellow color under the action of acid. The color intensity is positively correlated with the rat lactic acid (LC) in the sample.

[9] = female rats, hypoxia, 0.11 g/kg
[10] = female rats, normoxia, 0.11 g/kg

CC(=O)Nc1nnc(S(N)(=O)=O)s1 [Acetazolamide, reference compound]
weight 1 day ([1]; female mice): 20.27 ± 0.90 g
weight 3 days ([1]; female mice): 20.88 ± 1.50 g
weight 1 day ([1]; male mice): 15.41 ± 1.08 g
weight 3 days ([1]; male mice): 15.88 ± 1.24 g
effect on serum total protein content ([2]; female rats): has been not found
albumin (second column) ([2]; female rats, hypoxia): 29.18 ± 1.68 g/L
effect on serum albumin content ([2]; female rats, normoxia): can slightly increase
albumin (second column) ([2]; female rats, normoxia): 32.13 ± 0.45 g/L
effect on serum total protein content ([2]; male rats exposed to hypoxia): is not found
albumin (second column) ([2]; male rats, hypoxia): 27.87 ± 1.140 g/L
effect on serum endothelin-1 and nitric oxide ([3]; female rats after acute hypoxia exposure): no significant effects
Endothelin-1 ([3]; female rats, hypoxia): 55.66 ± 6.39 ng/mL
Nitric oxide ([3]; female rats, hypoxia): 4.96 ± 3.13 µmol/L
effect on nitric oxide content ([3]; female rats, normoxia): no significant effects
effect on serum endothelin-1 content ([3]; female rats, normoxia): can reduce
Endothelin-1 ([3]; female rats, normoxia): 36.18 ± 2.31 ng/mL
Nitric oxide ([3]; female rats, normoxia): 4.08 ± 0.88 µmol/L
effect on serum endothelin-1 and nitric oxide ([3]; hypoxia exposed male rats): slight reduction
Endothelin-1 ([3]; male rats, hypoxia): 42.41 ± 0.7 ng/mL
Nitric oxide ([3]; male rats, hypoxia): 3.52 ± 1.25 µmol/L
Serum homocysteine ([4]; female rats, hypoxia): 9.54 ± 0.98 µmol/L
effect on serum homocysteine ([4]; female rats, normoxia): no significant effects
Serum homocysteine ([4]; female rats, normoxia): 9.33 ± 1.16 µmol/L
effect on serum homocysteine ([4]; hypoxia exposed female rats): no significant effects
effect on serum homocysteine ([4]; hypoxia exposed male rats): have been not found
Serum homocysteine ([4]; male rats, hypoxia): 11.13 ± 1.67 µmol/L
start time of exhaustion swimming death ([5]; male mice, 6000 m): died earlier
Exhausted swimming survival time ([5]; male mice, 6000 m, 7 days, acetazolamide positive drug control (0.16 g/kg)): 130.64 ± 79.46 min
increasing rate of survival time ([5]; male mice, 6000 m, acetazolamide positive drug control (0.16 g/kg)): 2.10%
effect on survival time after exhausting swimming / working ability under hypoxia ([5]; mice under low oxygen exposure): no effect
Creatine Kinase ([6]; female rats, hypoxia): 503.40 ± 137.62 U/L
Lactate dehydrogenase ([6]; female rats, hypoxia): 534.00 ± 179.23 U/L
α-hydroxybutyrate dehydrogenase ([6]; female rats, hypoxia): 230.20 ± 75.49 U/L
effect on serum lactic dehydrogenase, creatine kinase, α-hydroxybutyrate dehydrogenase activity ([6]; female rats, normoxia): no significant effects
Creatine Kinase ([6]; female rats, normoxia): 697.67 ± 222.15 U/L
Lactate dehydrogenase ([6]; female rats, normoxia): 998.67 ± 285.56 U/L
α-hydroxybutyrate dehydrogenase ([6]; female rats, normoxia): 430.33 ± 134.10 U/L
effect on serum lactic dehydrogenase, creatine kinase, α-hydroxybutyrate dehydrogenase activity ([6]; hypoxia exposed female rats): no significant effects
effect on serum lactate dehydrogenase, creatine kinase, α-hydroxybutyrate dehydrogenase ([6]; hypoxia exposed male rats): has not been found
Creatine Kinase ([6]; male rats, hypoxia): 352.43 ± 138.11 U/L
Lactate dehydrogenase ([6]; male rats, hypoxia): 303.86 ± 174.67 U/L
α-hydroxybutyrate dehydrogenase ([6]; male rats, hypoxia): 126.29 ± 67.51 U/L
Glutamic oxalacetic transaminase [7, 9]: 73.20 ± 11.19 U
Glutamic-pyruvic transaminase [7, 9]: 28.40 ± 2.30 U
effect on glutamic-pyruvic transaminase and glutamic oxalacetic transaminase ([7]; female rats, normoxia): no significant effects
Glutamic oxalacetic transaminase [7, 10]: 102.33 ± 11.02 U
Glutamic-pyruvic transaminase [7, 10]: 41.67 ± 10.97 U
effect on glutamic pyruvic transaminase and total bilirubin ([7]; hypoxia exposed male rats): no significant effects
effect on serum glutamic oxalacetic transaminase ([7]; hypoxia exposed male rats): increasing
Glutamic oxalacetic transaminase ([7]; male rats, hypoxia, 0.11 g/kg): 77.57 ± 6.80 U
Glutamic-pyruvic transaminase ([7]; male rats, hypoxia, 0.11 g/kg): 44.00 ± 3.56 U
Total bilirubin ([7]; male rats, hypoxia, 0.11 g/kg): 0.15 ± 0.16 µmol/L
serum Lactic acid ([8]; female rats, hypoxia): 132.16 ± 10.42 ng/L
effect on serum ATP and lactic acid content ([8]; female rats, last sentence of b195 (normoxia per Table 37)): reducing
serum Lactic acid ([8]; female rats, normoxia): 100.54 ± 7.13 ng/L
effect on serum ATP and lactic acid content ([8]; hypoxia exposed female rats): no significant effects
effect on serum ATP ([8]; male rats): no significant effects
effect on serum lactic acid content ([8]; male rats): reducing
serum Lactic acid ([8]; male rats, hypoxia): 161.46 ± 6.94 ng/L
